Experimental data from article PMC10535864, “Novel Aminopyrimidine-2,4-diones, 2-Thiopyrimidine-4-ones, and 6-Arylpteridines as Dual-Target Inhibitors of BRD4/PLK1: Design, Synthesis, Cytotoxicity, and Computational Studies” (Pharmaceuticals, 2023).
Read-outs that look alike come from different tables or passages of the source.

Columns and labels:
BRD4 (BD2) = molecular target: T1, BRD4 (BD2) (Homo sapiens, UniProt O60885); assay: BRD4 inhibitory activity assay (AlphaLISA Bromodomain Assay); format: binding;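 also: in vitro inhibition of recombinant BRD4 BD2 bromodomain binding to a BET bromodomain ligand, read by AlphaLISA proximity signal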
T1 construct: BRD4 (BD2) should be thawed on ice; purchased
Description: The BRD4 and PLK1 inhibitory assays were carried out in vitro in accordance with the manufacturer’s instructions; BRD4 was assessed using AlphaLISA Bromodomain Assay Protocol [67], and PLK1 kinase was tested using the ADP-Glo™ Kinase Assay Protocol [68], as detailed in the Supplementary file.
The BRD4 and PLK1 inhibitory assays were carried out in vitro in accordance with the manufacturer's instructions; BRD4 was assessed using AlphaLISA Bromodomain Assay Protocol [67], and PLK1 kinase was tested using the ADP-Glo™ Kinase Assay Protocol [68],
The master mixture was prepared as follows: N wells × (2.5 µL 3x BRD Homogeneous Assay Buffer 1 + 1 µL BET Bromodomain Ligand + 1.5 µL H2O). BRD4 (BD2) should be thawed on ice. Simply, the protein-containing tube was spined to recover the full content of the tube after the firstthaw. Both proteins should be aliquoted into single-use aliquots. Immediately, any remaining undiluted protein should be stored in aliquots at -80°C. BRD4 (BD2) was diluted in 1x BRD Homogeneous Assay Buffer 1 at 4 ng/µL. The diluted proteins were kept on ice until they were used. 5 µl of the master mixture is added to each well designated for the “Positive Control”, “Test Inhibitor”, and “Blank”. For the “Substrate Control”, 2.5 µL 3x BRD Homogeneous Assay Buffer 1 + 1 µL Non-acetylated Ligand 1 + 1.5 µL H2O is added. Each “Test Inhibitor” well received 2.5 µL of inhibitor solution, while the “Positive
Control”, “Substrate Control”, and “Blank” wells received 2.5 µL of the same solution without inhibitor (inhibitor buffer). Then, the “Blank” well is filled with 2.5 µL of 1x BRD Homogeneous Assay Buffer 1. After that, GSH
10 µL per well is added, the plate isshaken, and itis incubated at room temperature for 30 minutes. Streptavidin-
10 µL is added per well and incubated at room temperature for further 15 – 30 minutes [67]. The Alpha counts were read using the EnVision® multimode plate reader with the standard Alpha detection settings.

human recombinant PLK1 = human recombinant PLK1 (Homo sapiens, UniProt P53350); assay: PLK1 inhibitory activity assay (ADP-Glo Kinase Assay); format: biochemical; conditions: for %inh: PLK1 Lab Report; for IC50: mean of three independent experiments, read-out: PLK1 IC50 ± SD
Sequence of human recombinant PLK1 (P53350 whole entry): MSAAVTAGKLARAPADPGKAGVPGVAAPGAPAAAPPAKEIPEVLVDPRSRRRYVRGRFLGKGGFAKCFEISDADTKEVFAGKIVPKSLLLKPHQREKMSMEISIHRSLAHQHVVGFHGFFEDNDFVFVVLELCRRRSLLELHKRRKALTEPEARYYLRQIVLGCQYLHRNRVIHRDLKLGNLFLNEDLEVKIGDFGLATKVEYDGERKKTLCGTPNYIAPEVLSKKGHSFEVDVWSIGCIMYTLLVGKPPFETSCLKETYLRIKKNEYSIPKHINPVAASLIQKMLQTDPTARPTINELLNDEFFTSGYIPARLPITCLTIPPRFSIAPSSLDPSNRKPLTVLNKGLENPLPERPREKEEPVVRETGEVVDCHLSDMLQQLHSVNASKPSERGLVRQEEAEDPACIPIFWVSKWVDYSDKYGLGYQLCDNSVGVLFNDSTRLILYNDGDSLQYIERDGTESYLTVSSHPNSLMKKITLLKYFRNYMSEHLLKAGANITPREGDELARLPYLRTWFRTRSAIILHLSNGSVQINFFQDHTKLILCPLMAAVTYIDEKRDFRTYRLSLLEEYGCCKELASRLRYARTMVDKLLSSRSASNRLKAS
Description: The BRD4 and PLK1 inhibitory assays were carried out in vitro in accordance with the manufacturer’s instructions; BRD4 was assessed using AlphaLISA Bromodomain Assay Protocol, and PLK1 kinase was tested using the ADP-Glo™ Kinase Assay Protocol, as detailed in the Supplementary file. […]
1.2.2. PLK1 inhibitory activity assay
The kinase reaction was performed with active human recombinant PLK1 and combined with the substrate dephosphorylated casein (positive control) using 1 X reaction buffer (40 mM Tris-HCl pH 7.4, 20 mM MgCl2, 0.1 mg/mL BSA, 1 mM DTT) and 20 μM ATP. The reaction was incubated at30°C for 45 minutes. The amount of ATP transferred was calculated using […] reagent from Promega according to the manufacturer’s instruction.
A plate-reading luminometer isused to measure the luminescence. […]

MDA-MB-231 cells [1] = assay: Cell cycle analysis, propidium iodide flow cytometry; format: cell-based; conditions: treated at IC50 concentration, 48 h, control 9.19%
Description: (§1) The results are indicated as a dot plot graph with four quadrant images (Figure 5B). […] However, both compounds also raised the necrotic percent by 1.8- and 2.8-fold, respectively, compared to non-treated cells. Overall, these findings implied that compound 7 could exert anticancer activity by producing cell cycle arrest at the G2/M phase and inducing apoptosis.
(§2) An Epics XL-MCL™ Flow Cytometer and Flowing software 2012 were used to count and analyze stained cells. The Supplementary file contains detailed descriptions of the flow cytometric analysis of cell-cycle distribution and cellular apoptosis. […]
(§3) 1.3.Cell cycle and apoptosis screening […]
(§4) investigated using an Ab-139418 propidium iodide flow cytometry kit and an Annexin-V assay and biparametric cytofluorimetric analysis, respectively, as instructed by the manufacturer. IC50s of both 7 and […]
Cytometer and Flowing software were used to count and analyze stained cells. The Supplementary file contains detailed descriptions of the flow cytometric analysis of cell-cycle distribution and cellular apoptosis.
1.3.1. Cell cycle analysis […]
a six-well plate containing MDA-MB-231 breast cancer cells was seeded with 1 X 10^5 cells per well and then […]
Following that, cells were gathered and fixed in ice-cold 70% ethanol at 4 °C for 12 hours. The cells were then rinsed with cold Phosphate Buffer Saline (PBS) and incubated for 30 minutes at 37°C in 0.5 mL of PBS after the ethanol was removed. Propidium iodide was used to stain the cells for 30 min while they were in the dark. DNA content was determined using a flow cytometer. […]

MDA-MB-231 cells [2] = assay: Apoptosis screening, annexin V-FITC/PI flow cytometry; format: cell-based; conditions: compared to non-treated control MDA-MB-231 cells
Description: as §1, §2, §3, §4
Cytometer and Flowing software were used to count and analyze stained cells. The Supplementary file contains detailed descriptions of the flow cytometric analysis of cell-cycle distribution and cellular apoptosis. […]
1.3.2. Apoptosis screening […]
plate received 1 X 105 conc. breast cancer (MDA-MB-231) cells that were then incubated for 24 hours. The cells […]
with PBS, and stained for 15 min at room temperature in the dark with annexin V-FITC and PI in binding buffer (10 […]
µM HEPES, 140 µM NaCl, and 2.5 µM CaCl2 at pH 7.4). […]
high-quality RNA iseluted in RNase-free water.
1.4.2. Master mix preparation
All the following reagents were mixed together to give a totalvolume (50 μL). 2X SYBR® Green RT-PCR reaction mixture (25 μL), forward primer (10 μM) (1.5 μL), reverse primer (10 μM) (1.5 μL), nuclease-free H2O (11 μL), RNA template (1 pg to 100 ng totalRNA) (10 μL) and iScript reverse transcriptase for One-Step RT-PCR (1 μL).
1.4.3. Amplification protocol
Incubate complete reaction mixture in a real-time thermal detection system (Rotorgene) as follows: cDNA synthesis:
10 min at 50 °C, iScript reverse transcriptase inactivation: 5 min at 95 °C, polymerase chain reaction (PCR) cycling and detection (30–45 cycles): 10 s at 95 °C and 30 s at 55 °C to 60 °C (data collection step) and melt curve analysis:
1 min at95 °C and 1 min at55 °C and 10 s at55 °C (80 cycles, increasing each by 0.5 °C each cycle).

[3] = tested on: BAX gene in MDA-MB-231 cells; assay: RT-PCR gene expression, BAX; format: cell-based; conditions: 48 h treatment, control = 1
Description: (§5) As well, there was an apparent increase in caspase-3, showing 3.9-fold more expression than in control cells.
(§6) Fluorometric analysis was used to gauge the level of these genes’ expression. The procedure for the used kit was carried out in accordance with the manufacturer’s instructions, which are detailed in the Supplementary file. […]
(§7) […] at pH 7.4). The flow cytometer was then used to examine the cells […]
(§8) 1.4.Estimation of apoptotic and anti-apoptotic gene markers […]
(§9) such as Bax and caspase-3, as well as anti-apoptotic genes such as Bcl-2, was studied using the BIORAD iScriptTM One-Step RT-PCR kit with SYBR® Green. MDA-MB-231 cells were cultured before being treated for 48 hours […]
(§10) Fluorometric analysis was used to gauge the level of these genes' expression. The procedure for the used kit was carried out in accordance with the manufacturer's instructions, which are detailed as follows:
(§11) 1.4.1. RNA isolation and reverse transcription m RNA isolation iscarried out using an RNeasy extraction kit,up to 1 x 10^7 cells, depending on the cell line. Cells are disrupted in RNeasy Lysis Buffer (RLT buffer), homogenized, then ethanol is added to the lysate, creating conditions that promote selective binding of RNA to the RNeasy membrane. […]

[4] = tested on: caspase-3 gene in MDA-MB-231 cells; assay: RT-PCR gene expression, caspase-3; format: cell-based; conditions: 48 h treatment, control = 1
Description: as §5, §6, §7, §8, §9, §10, §11

[5] = tested on: Bcl-2 gene in MDA-MB-231 cells; assay: RT-PCR gene expression, Bcl-2; format: cell-based; conditions: 48 h treatment, control = 1
Description: as §5, §6, §7, §8, §9, §10, §11

[6] = tested on: MDA-MB-231 breast cancer cells; assay: MTT cytotoxicity assay, MDA-MB-231; format: cell-based; conditions: MDA-MB-231, MTT
Description: (§12) All newly synthetic compounds were tested for cytotoxicity using a six-dose MTT colorimetric assay on three cancer cell lines; namely, breast cancer cells (MDA-MB-231), colorectal adenocarcinoma cells (HT-29) and renal cancer cells (U-937). […] However, renal cancer cells (U-937) were discovered to be the least sensitive.
(§13) Using a six-dose MTT colorimetric assay, all new synthetic compounds were tested for cytotoxicity against three cancer cell lines: MDA-MB-231 breast cancer cells, HT-29 colorectal adenocarcinoma cells, and U-937 renal cancer cells. […] These cell lines were supplied by ATCC (American Type Culture Collection) via the Holding company for biological products and vaccines (VACSERA, Cairo, Egypt). The reference control used was Methotrexate. Detailed descriptions of the MTT colorimetric assay’s protocol can be found in the Supplementary file.
(§14) 1.1.In-vitro cytotoxicity screening
(§15) Using a six-dose MTT colorimetric assay, allnew synthetic compounds were tested for cytotoxicity against three cancer cell lines: MDA-MB-231 breast cancer cells,HT-29 colorectal adenocarcinoma cells, and U-937 renal […]
(§16) The cell lines were supplied by ATCC (American Type Culture Collection). The reference control used was Methotrexate. The cytotoxic activities of the examined compounds were quantified by inoculating a 96-well tissue culture plate with 1 X 10^5 cells / mL (100 uL/well) and incubating it at 37°C for 24 hours to develop a complete monolayer sheet. After forming a confluent sheet of cells, the growth medium was decanted from 96-well microtiter plates, and the cell monolayer was washed twice with wash media. Two-fold dilutions of tested samples were made in RPMI medium with 2% serum (maintenance medium), and 0.1 mL of each dilution was tested in different wells, with three wells serving as controls and receiving only maintenance medium. Following that, the plate was incubated at 37°C and examined. Cells were investigated for any physical signs of toxicity, such as partial or complete monolayer loss, rounding, shrinkage, or cell granulation. MTT solution was prepared (5mg/ml in PBS) (BIO BASIC CANADA INC), and 20 uL MTT solution was added to each well. After 5 minutes on a shaking table at150 rpm to thoroughly mix the MTT into the media, it was incubated (37°C, 5% CO2) for 4 hours to allow the MTT to be metabolized. Formazan (MTT metabolic product) was resuspended in 200 uL DMSO and shaken at 150 rpm for 5 minutes to thoroughly mix the formazan into the solvent. The optical density was measured at 560 nm, and the background was subtracted at 620 nm. Finally, the IC50 of the test compound in comparison to the reference was calculated using the GraphPad Prism software. […]

[7] = tested on: HT-29 colorectal adenocarcinoma cells; assay: MTT cytotoxicity assay, HT-29; format: cell-based; conditions: MTT
Description: as §12, §13, §14, §15, §16

[8] = MTT cytotoxicity assay, U-937; format: cell-based; conditions: Homo sapiens, U-937, U937, MTT;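 also: Six-dose MTT colorimetric assay on cell monolayers, formazan absorbance read at 560 nm with 620 nm background removed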
Description: (§17) Using a six-dose MTT colorimetric assay [44, 66], all new synthetic compounds were tested for cytotoxicity against three cancer cell lines: MDA-MB-231 breast cancer cells, HT-29 colorectal adenocarcinoma cells, and U-937 renal cancer cells. […] These cell lines were supplied by ATCC (American Type Culture Collection) via the Holding company for biological products and vaccines (VACSERA, Cairo, Egypt). The reference control used was Methotrexate.
(§18) Using a six-dose MTT colorimetric assay [44, 66], allnew synthetic compounds were tested for cytotoxicity against three cancer cell lines: MDA-MB-231 breast cancer cells,HT-29 colorectal adenocarcinoma cells, and U-937 renal
(§19) The cell lines were supplied by ATCC (American Type Culture Collection). The reference control used was Methotrexate. The cytotoxic activities of the examined compounds were quantified by inoculating a 96-well tissue culture plate with 1 X 10^5 cells / mL (100 uL/well) and incubating it at 37°C for 24 hours to develop a complete monolayer sheet. After forming a confluent sheet of cells, the growth medium was decanted from 96-well microtiter plates, and the cell monolayer was washed twice with wash media. Two-fold dilutions of tested samples were made in RPMI medium with 2% serum (maintenance medium), and 0.1 mL of each dilution was tested in different wells, with three wells serving as controls and receiving only maintenance medium. Following that, the plate was incubated at 37°C and examined. Cells were investigated for any physical signs of toxicity, such as partial or complete monolayer loss, rounding, shrinkage, or cell granulation. MTT solution was prepared (5mg/ml in PBS) (BIO BASIC CANADA INC), and 20 uL MTT solution was added to each well. After 5 minutes on a shaking table at150 rpm to thoroughly mix the MTT into the media, it was incubated (37C, 5% CO2) for 4 hours to allow the MTT to be metabolized. Formazan (MTT metabolic product) was resuspended in 200 uL DMSO and shaken at 150 rpm for 5 minutes to thoroughly mix the formazan into the solvent. The optical density was measured at 560 nm, and the background was subtracted at 620 nm. Finally, the IC50 of the test compound in comparison to the reference was calculated using the GraphPad Prism software.

U-937 renal cancer cells = assay: MTT cytotoxicity assay, U-937; format: cell-based; conditions: MTT; for Toxicity %: U937;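 as to all read-outs here: Six-dose MTT colorimetric assay on cell monolayers, formazan absorbance read at 560 nm with 620 nm background removed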
Description: as §17, §18, §19

## CC[C@@H]1C(=O)N(C)c2cnc(Nc3ccc(C(=O)N[C@H]4CC[C@H](N5CCN(CC6CC6)CC5)CC4)cc3OC)nc2N1C(C)C [Volasertib, reference compound]
BRD4 (BD2)
  IC50: 17 ± 1 nM
Human recombinant PLK1; conc 0.01 (unit not given)
  %inh: 42%
Human recombinant PLK1; conc 0.1 (unit not given)
  %inh: 58%
Human recombinant PLK1; conc 1 (unit not given)
  %inh: 76%
Human recombinant PLK1; conc 10 (unit not given)
  %inh: 91%
Human recombinant PLK1; conc 100 (unit not given)
  %inh: 96%
Human recombinant PLK1
  IC50: 25 ± 1 nM
MDA-MB-231 cells [1]
  DNA content % at cell cycle phase %G2/M: 17.38%
MDA-MB-231 cells [2]
  elevation in the late apoptotic stage: ~110.2 fold
  increase in early apoptosis: 24.4 fold
  increase in total apoptosis: 16.3 fold
  rise of necrotic percent: 2.8 fold
[3]
  Gene expression BAX (apoptotic gene): 5.332 fold
[4]
  Gene expression Caspase-3 (apoptotic gene): 5.531 fold
[5]
  Gene expression Bcl-2 (anti-apoptotic gene): 0.351 fold

## COc1ccc(-c2cnc3c(n2)c(=O)[nH]c(=O)n3Cc2ccccc2)cc1 [Compound 9, 1-Benzyl-6-(4-methoxyphenyl)pteridine-2,4(1H,3H)-dione]
[6]; Homo sapiens, mean of three independent experiments ± SD, read-out: IC50 Value MDA-MB-231
  IC50: 2070 ± 30 nM
[6]; Homo sapiens, 0.312 uM
  viability at 0.312 µM: 99.7%
[6]; Homo sapiens, 0.625 uM
  viability at 0.625 µM: 99.2%
[6]; Homo sapiens, 1.25 uM
  viability at 1.25 µM: 86.2%
[6]; Homo sapiens, 2.5 uM
  viability at 2.5 µM: 33%
[6]; Homo sapiens, 5 uM
  viability at 5 µM: 13.5%
[6]; Homo sapiens, 10 uM
  viability at 10 µM: 5.45%
[6]; 0.312 uM
  Toxicity %: 0.266%
[6]; 0.625 uM
  Toxicity %: 0.7979%
[6]; 1.25 uM
  Toxicity %: 13.79%
[6]; 2.5 uM
  Toxicity %: 66.98%
[6]; 5 uM
  Toxicity %: 86.48%
[6]; 10 uM
  Toxicity %: 94.55%
[7]; HT29, 0.312 uM
  Toxicity %: 0.2584%
[7]; HT29, 0.625 uM
  Toxicity %: 0.08613%
[7]; HT29, 1.25 uM
  Toxicity %: 0.08613%
[7]; HT29, 2.5 uM
  Toxicity %: 12.36%
[7]; HT29, 5 uM
  Toxicity %: 68.22%
[7]; HT29, 10 uM
  Toxicity %: 88.67%
[7]; Homo sapiens, HT-29, HT29, 0.312 uM
  viability at 0.312 µM: 99.7%
[7]; Homo sapiens, HT-29, HT29, 0.625 uM
  viability at 0.625 µM: 99.9%
[7]; Homo sapiens, HT-29, HT29, 1.25 uM
  viability at 1.25 µM: 99.9%
[7]; Homo sapiens, HT-29, HT29, 2.5 uM
  viability at 2.5 µM: 87.6%
[7]; Homo sapiens, HT-29, HT29, 5 uM
  viability at 5 µM: 31.8%
[7]; Homo sapiens, HT-29, HT29, 10 uM
  viability at 10 µM: 11.3%
[7]; Homo sapiens, HT-29, mean of three independent experiments ± SD, read-out: IC50 Value HT-29
  IC50: 4110 ± 50 nM
[8]; 0.312 uM
  viability at 0.312 µM: 99.8%
[8]; 0.625 uM
  viability at 0.625 µM: 100%
[8]; 1.25 uM
  viability at 1.25 µM: 98.6%
[8]; 2.5 uM
  viability at 2.5 µM: 77%
[8]; 5 uM
  viability at 5 µM: 42%
[8]; 10 uM
  viability at 10 µM: 19.3%
U-937 renal cancer cells; Homo sapiens, U-937, mean of three independent experiments ± SD, read-out: IC50 Value U-937
  IC50: 4420 ± 180 nM
U-937 renal cancer cells; 0.312 uM
  Toxicity %: 0.2179%
U-937 renal cancer cells; 0.625 uM
  Toxicity %: 0%
U-937 renal cancer cells; 1.25 uM
  Toxicity %: 1.416%
U-937 renal cancer cells; 2.5 uM
  Toxicity %: 23.04%
U-937 renal cancer cells; 5 uM
  Toxicity %: 58.01%
U-937 renal cancer cells; 10 uM
  Toxicity %: 80.66%
BRD4 (BD2); mean of three independent experiments, read-out: BRD4 IC50 ± SD
  IC50: 179 ± 8 nM
Human recombinant PLK1
  IC50: 41 ± 1 nM
other
  melting point: > 300 °C
